Measurements from publication PMC12385910, “The Functional Characterization of an AA10 Lytic Polysaccharide Monooxygenase from Saccharophagus degradans 2-40^T for Enhanced Chitin Biodegradation” (Foods, 2025).

Target: T1, SdLPMO10A (Saccharophagus degradans, UniProt Q21N34)
T1 construct: gene cbpA; AA10 catalytic domain plus CBM2; native signal peptide (24 residues) replaced by pelB, pET-26b(+), E. coli BL21(DE3) periplasm, Ni-NTA purified; N-terminal His25; Cu2+-saturated
Experiment: MALDI-TOF MS of oxidized chitin oligosaccharides
Assay type: biochemical
Conditions: electron donor, 1 mM; 10 µM Cu2+-saturated enzyme; alpha-chitin; 20 mM Tris-HCl pH 8.0, 30 °C, 48 h

T1 sequence (Q21N34 entry or part of it): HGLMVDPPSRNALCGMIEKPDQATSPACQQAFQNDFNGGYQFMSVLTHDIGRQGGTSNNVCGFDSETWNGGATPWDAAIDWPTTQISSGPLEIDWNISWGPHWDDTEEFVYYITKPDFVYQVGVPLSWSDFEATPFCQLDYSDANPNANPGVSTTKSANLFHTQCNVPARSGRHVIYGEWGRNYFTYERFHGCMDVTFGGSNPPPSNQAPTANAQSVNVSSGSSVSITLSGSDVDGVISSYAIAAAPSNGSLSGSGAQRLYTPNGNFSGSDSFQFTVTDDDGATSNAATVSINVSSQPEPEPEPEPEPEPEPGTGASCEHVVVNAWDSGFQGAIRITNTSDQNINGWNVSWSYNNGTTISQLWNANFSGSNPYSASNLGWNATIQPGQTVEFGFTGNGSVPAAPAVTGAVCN

SMILES: O=C1O[C@H]([C@@H](O)CO)C(O)=C1O [ascorbic acid]
- MALDI-TOF MS of oxidized chitin oligosaccharides: lacking SdLPMO10A or ascorbic acid, no discernible quantity of oxidized chitin oligosaccharides was generated
